# Laboratory results reported in patent publication US5639787A, “Therapeutic method for the treatment of cancer” (priority 1995, dated 1997).
# Like-named read-outs stand apart in the source and are kept apart here.
# Key:
# [1] = safety and tolerance of ascorbic acid administration; format: in vivo, human
# From the text: G.; O'Fallon, J. R.; et al. Failure of High Dose Vitamin C (ascorbic acid) to Benefit Patients With Advanced Cancer: A Control Trial. N Engl. J. Med., 1979; 301:687-690 and Mortel, C. G.; Fleming, T. R.; Creagan, E. T.; , et al. High Dose of Vitamin C Versus Placebo In The Treatment of Patients With Advanced Cancer Who Have Had No Prior Chemotherapy. N Engl. J. Med., 1985; 312:137-141. Heretofore the highest dosage understood to be safely administered to a human was approximately 10-15 grams. […] The positive results are believed to have been achieved by means of increased stromal resistance to the invasiveness of the malignancies studied, although the lack of monitoring of the level of ascorbic acid present in the plasma prevents an accurate assessment.
# Therefore, the in vitro results are not readily duplicated in vivo and the concentrations of ascorbic acid that are effectively toxic in vitro are not as effective, nor as easy to achieve, in test subjects.
# The method of the present invention comprises the treatment of cancer by administering sufficient amounts of ascorbic acid to raise the concentration of ascorbic acid in the patient's plasma above a level that is cytotoxic to the cancer tumor cells. The treatment is based on the fact that tumor cells contain between 10 and 100 fold less of the enzyme catalase than normal cells. Catalase converts toxic hydrogen peroxide to non-toxic oxygen and water. This biochemical difference between normal and tumor cells provides a window of opportunity for selective toxicity. It has been known for some time that ascorbate is capable of inducing the intracellular production of hydrogen peroxide. […] The plasma levels of ascorbic acid in patients are routinely and repeatedly monitored throughout the treatment and the amount of ascorbic acid administered is adjusted according to the individual patient's tolerance and the target level of ascorbic acid. […]
# [2] = humans; cited from earlier work
# clinical [3] = conditions: human, in vivo
# From the text: It is known that ascorbic acid and salts thereof have shown a cytotoxic effect when administered in vitro to tumor cell lines. […] The cytotoxic effect of ascorbic acid is understood to relate to the increased production of intracellular hydrogen peroxide, which is more toxic to tumor cells due to the lower levels of catalase typically present in tumor cells as compared to normal cells. Although some cancers may respond to lower levels, the concentration level of ascorbic acid required for in vitro cytotoxic effectiveness are normally in the range of 5-40 mg/dl with concentrations of 30-40 mg/dl being typical. […] Moreover, since ascorbic acid is readily cleared from the body, the tumor cytotoxic effect, if any, achieved by conventionally administered doses of ascorbic acid would be transitory at best.
# The method of the present invention comprises the treatment of cancer by administering sufficient amounts of ascorbic acid to raise the concentration of ascorbic acid in the patient's plasma above a level that is cytotoxic to the cancer tumor cells. The treatment is based on the fact that tumor cells contain between 10 and 100 fold less of the enzyme catalase than normal cells. Catalase converts toxic hydrogen peroxide to non-toxic oxygen and water. This biochemical difference between normal and tumor cells provides a window of opportunity for selective toxicity. It has been known for some time that ascorbate is capable of inducing the intracellular production of hydrogen peroxide. The basis of the present invention is the discovery, through experimentation, that concentrations of ascorbate capable of inducing toxic reactions in tumor cells were achievable in vivo through intravenous infusion of large amounts of ascorbic acid in solution. […] For this reason, it is desirable to exceed the levels required for in vitro cytotoxicity in tumor cells by a wide margin. It is also advantageous to maintain the cytotoxic level of ascorbic acid in the patient's plasma for as long a period of time as is reasonably possible. To achieve such results in patients, the treatment has required intravenous administration of as much as 115 grams of ascorbic acid infused over several hours to achieve an apparently effective level of ascorbic acid. […] Continuous administration of a solution of ascorbic acid maintains the plasma levels despite the bodies ability to clear the ascorbate from the patient's system. Continuation of the treatment over multiple infusions is believed to be desirable. […] The plasma levels of ascorbic acid in patients are routinely and repeatedly monitored throughout the treatment and the amount of ascorbic acid administered is adjusted according to the individual patient's tolerance and the target level of ascorbic acid. Target levels of ascorbic acid are set according to the type of cancer afflicting the patient using in vitro studies of cytotoxicity in similar cell lines. More accurate target levels can be achieved by in vitro experimentation of malignant cells taken from the patient if such are available. A further development of the treatment of the present invention involves the direct testing of the cytotoxic effectiveness of the patient's serum. Serum is drawn during the infusion and either the patient malignant cells, if available, or similar cell lines are exposed to the patient's serum with the effects observed. This direct testing provides information that is used to adjust the amount of ascorbic acid administered to ensure that effective plasma levels have been achieved.
# Since, as stated above, there is not a direct translation of in vitro to in vivo results, the level of ascorbic acid within the patient's plasma must be raised to exceed the levels required for in vitro cytotoxicity in tumor cells and maintained at that level for a significant period of time. The patient undergoes an intravenous infusion of ascorbic acid in a medically acceptable aqueous solution such as Ringer's lactate. As an example, Mr. […]
# clinical [4] = conditions: human, in vivo, iv
# Description: (§1) 5 a person was a with metastatic prostate cancer. A baseline blood sample was drawn from the patient and the serum was separated. An intravenous infusion of 105 grams of ascorbate was performed over 5 hours. At the and of the 5 hours another blood sample was taken and again the serum was separated. The pre-infusion serum sample was assayed and found to contain an ascorbic acid concentration of 3.4 mg/dl and the post-infusion serum samples were assayed and found to contain an ascorbic acid concentration of 165 mg/dl. The cytotoxic effectiveness of both serum samples was tested against a line of human prostate tumor cells called "PC-3"from American Type Culture Collection. The PC-3 cells were plated, 3,000 cells per well in plastic 96 well tissue culture plates 24 hours before the blood was taken from the patient above. 100% and 50% (diluted with complete culture medium, DMEM) serum solutions from both samples were added to 16 wells each of the PC-3 cells which had been plated earlier. After a five day incubation, the number of surviving tumor cells in the wells containing the 100% and 50% solutions of the post-infusion serum sample was compared to the number of surviving tumor cells in the wells containing the 100% and 50% solutions of the pre-infusion serum sample and the percent survival was calculated as follows: […]
# [5] = test system: metastatic ovarian cancer; assay: A person, intravenous ascorbate, cancer antigen CA-125 level; format: in vivo, human; conditions: throughout intravenous ascorbate therapy, seven months
# Description: 4 a person is a person with metastatic ovarian cancer. After six months of standard chemotherapy, a second exploratory surgery was performed, at which time metastases throughout the abdominal cavity were found. The patient was started on intravenous ascorbate infusions at the quantity and rate of flow required to maintain a plasma concentration of 80 mg/dl.
# [6] = test system: metastatic fibrous histiocytoma; assay: A person, intravenous ascorbate, chest x-ray; format: in vivo, human
# From the text: Two masses were in the left lung and one mass was in the right lung. All masses measured approximately 2 cm. in diameter.
# [7] = cited from earlier work
# cancer = conditions: high doses of ascorbic acid; two published trials; cited from earlier work
# tumor cell lines = conditions: cited from earlier work
# [8] = test system: metastatic carcinoma of the head of the pancreas; assay: A person, intravenous ascorbate, tumor on C-T scan; format: in vivo, human; conditions: six months after diagnosis
# Description: Since, as stated above, there is not a direct translation of in vitro to in vivo results, the level of ascorbic acid within the patient's plasma must be raised to exceed the levels required for in vitro cytotoxicity in tumor cells and maintained at that level for a significant period of time. The patient undergoes an intravenous infusion of ascorbic acid in a medically acceptable aqueous solution such as Ringer's lactate. As an example, whose case is described below was administered 115 grams of ascorbic acid in 1000 cc Ringer's lactate, infused over 8 hours. The infusions are continued until resolution of the patient's tumors have been evidenced. Normal diagnosis and classification of the patient's cancer can be used in conjunction with experimental results to predict the target levels of ascorbic acid for an effective treatment. More accurate target levels can be achieved by experimentation on cultured malignant cells taken from the patient if such are available. […] The plasma levels of ascorbic acid in patients are routinely and repeatedly monitored throughout the treatment and the amount of ascorbic acid administered is adjusted according to the individuals tolerance and the target level of ascorbic acid. […]
# [9] = test system: metastatic colon carcinoma; assay: A person, intravenous ascorbate, metastases observed during surgery; format: in vivo, human; conditions: after four months of therapy
# Description: (§2) 3 Mr. […] Cancer was discovered during exploratory surgery. Multiple metastases were found on the omentum, transverse and sigmoid colon, and the peritoneum. Biopsy samples from these metastases were obtained during surgery and most of the tumor mass was not removed. A cell culture line was established from the tissue biopsies, and the patient tumor cells were tested to determine the sensitivity of the tumor cells to ascorbic acid. […] A target level of plasma concentration of ascorbic acid was selected at three times the level found to be toxic to the patient's tumor cells. Intravenous ascorbate was begun and the infusion quantity and rate required to achieve and maintain the targeted plasma ascorbic acid concentration of 90 mg/dl was determined. Twenty hour infusions of ascorbate were given three times per week. After four months of therapy, a surgical ileostomy was performed due to chronic diarrhea.
# [10] = test system: PC-3 human prostate tumor cells; assay: cells; format: cell-based; conditions: PC-3, 120 h
# Description: as §1
# [11] = test system: patient's tumor cells (metastatic colon carcinoma); assay: cells; format: cell-based; conditions: Homo sapiens, Colon carcinoma cell, read-out: toxic to percent of the patient's tumor cells
# Description: as §2
# [12] = test system: intracellular adhesion molecule-1 (ICAM-1); conditions: cited from earlier work
compound,measurement,setting,value
O=C1O[C@H]([C@@H](O)CO)C(O)=C1O [ascorbic acid],detrimental side effects,"[1]; A person, 39 8 hour infusions, 57.5 to 115 grams per infusion, 13 weeks",without reported detrimental side effects
same,depletion of minerals and other substances,[1]; ascorbic acid infusion process,depletion of certain minerals and other substances
same,detrimental side effects,[1]; intravenous infusion of large amounts (as much as 115 grams over several hours),without reported detrimental side effects
same,normal plasma levels of ascorbic acid,[2],0.39 to 1.13 mg/dL
same,concentration at 1 h,clinical [3]; iv,1580 µg/mL
same,concentration at 5 h,clinical [3]; iv,1850 µg/mL
same,plasma concentration maintained,clinical [3]; iv,80 mg/dL
same,plasma level of ascorbate achieved,clinical [3]; iv,exceeding 150 mg/dl
same,plasma levels of ascorbate achieved,clinical [3]; iv,110 mg/dL
same,targeted plasma ascorbic acid concentration achieved and maintained,clinical [3]; iv,90 mg/dL
same,levels of ascorbic acid between infusions,clinical [3]; po,found to avoid abnormally low levels of ascorbic acid between infusions
same,ascorbic acid concentration in serum,clinical [4],3.4 mg/dL
same,concentration at 5 h,clinical [4],1650 µg/mL
same,level of cancer antigen CA-125,[5],returned to normal and remained within normal limits
same,"right lung mass, chest x-ray",[6]; after seven months of therapy,disappeared
same,diameter of regressed left lung mass,"[6]; after seven months, initially approximately 2 cm in diameter",about 1 cm
same,left lung mass which had regressed,[6]; after twelve months of therapy,completely resolved
same,size of the remaining left lung metastasis,[6]; after twelve months of therapy,no change
same,"left lung mass, chest x-ray","[6]; one of the left lung masses, after seven months of therapy",decreased in size (to about 1 cm) with decreased radio-opacity
same,highest dosage understood to be safely administered to a human,"[7]; human, before the invention",10-15 grams
same,tumor necrosis and hemorrhage,"[7]; rare cases of extreme tumor sensitivity to ascorbic acid, fatal",rare instances of wide-spread tumor necrosis and hemorrhage
same,benefit to patients with advanced cancer,cancer,failure of high doses of ascorbic acid to have the desired effect in the treatment of cancer
same,effect of exposure to plasma on cytotoxic effect,tumor cell lines; exposure to plasma,"diminished, to varying degrees"
same,concentration level of ascorbic acid required for in vitro cytotoxic effectiveness,tumor cell lines; normally in the range,5 to 40 mg/dL
same,"concentration level of ascorbic acid required for in vitro cytotoxic effectiveness, typical",tumor cell lines; typical concentrations,30 to 40 mg/dL
same,tumor seen on C-T scan,[8],no detectable tumor
same,"multiple metastases, size and consistency",[9],decreased significantly in size and have a flaccid consistency
same,viability at 1650 µg/mL,"[10]; read-out: percent tumor cell survival, post-infusion serum (165 mg/dl ascorbic acid), 50% serum, five days",15%
same,viability at 1650 µg/mL,"[10]; read-out: percent tumor cell survival, post-infusion serum (165 mg/dl ascorbic acid), 100% serum, five days",19%
same,viability at 34 µg/mL,"[10]; read-out: percent tumor cell survival, preinfusion serum (3.4 mg/dl ascorbic acid), 50% serum, five days, reference",100%
same,viability at 34 µg/mL,"[10]; read-out: percent tumor cell survival, preinfusion serum (3.4 mg/dl ascorbic acid), 100% serum, five days, reference",100%
same,cytotoxicity at 300 µg/mL,[11],100%
hyaluronic acid,binding by ICAM-1,[12],preferentially bound
